Measured values published in ChEMBL document CHEMBL1155926, “Parallel synthesis and antileishmanial activity of ether-linked phospholipids” (Bioorg Med Chem Lett, 2008).

Key:
[1] = system: Leishmania donovani; assay: Antileishmanial activity against Leishmania donovani axenic amastigotes after 72 hrs by serial dilution method; type: functional, organism-based
[2] = system: Leishmania donovani; assay: Antileishmanial activity against Leishmania donovani infected macrophage; type: functional, organism-based

SMILES	IC50 [1] [µM]	IC50 [2] [µM]
C[N+](C)(C)CCOP(=O)([O-])OCC(COCn1nnc2ccccc21)OCc1cccc2ccccc12 (stereo unspecified)	33.1	–
C=CCOCC(COP(=O)([O-])OCC[N+](C)(C)C)OCCCC (stereo unspecified)	42.5	–
Cc1noc(C)c1COCC(COP(=O)([O-])OCC[N+](C)(C)C)OCc1cccc2ccccc12 (stereo unspecified)	> 50	–
CCCCOC(COCc1ccccc1)COP(=O)([O-])OCC[N+](C)(C)C (stereo unspecified)	> 50	–
C[N+](C)(C)CCOP(=O)([O-])OCC(COCn1nnc2ccccc21)Oc1ccccc1 (stereo unspecified)	28.2	–
C[N+](C)(C)CCOP(=O)([O-])OCC(COCn1nnc2ccccc21)OCc1ccccc1 (stereo unspecified)	> 50	–
Cc1noc(C)c1COCC(COP(=O)([O-])OCC[N+](C)(C)C)OCc1ccccc1 (stereo unspecified)	> 50	–
C=CCOCC(COP(=O)([O-])OCC[N+](C)(C)C)OCCCCCCCCCCCCCCCCCC (stereo unspecified)	6.75	–
CCCCCCCCCCCCCCCCCCOC(COCc1ccccc1)COP(=O)([O-])OCC[N+](C)(C)C (stereo unspecified)	1.6	–
C[N+](C)(C)CCOP(=O)([O-])OCC(COCc1ccccc1)OCc1ccccc1 (stereo unspecified)	4.15	–
CCCCCCCCCCCCCCCCOP(=O)([O-])OCC[N+](C)(C)C [MILTEFOSINE]	0.22	1.74

Results, then the compound that gave them:

IC50 [1] [µM]	IC50 [2] [µM]	SMILES
1.3	–	CCCCCCCCCCCCCCCCCCOC(COCc1c(C)noc1C)COP(=O)([O-])OCC[N+](C)(C)C (stereo unspecified)
> 50	–	Cc1noc(C)c1COCC(COP(=O)([O-])OCC[N+](C)(C)C)Oc1ccccc1 (stereo unspecified)
> 50	–	C[N+](C)(C)CCOP(=O)([O-])OCC(COCc1ccccc1)Oc1ccccc1 (stereo unspecified)
> 50	–	CCCCOC(COCn1nnc2ccccc21)COP(=O)([O-])OCC[N+](C)(C)C (stereo unspecified)
26.7	–	C=CCOCC(COP(=O)([O-])OCC[N+](C)(C)C)OCc1cccc2ccccc12 (stereo unspecified)
13.8	–	C[N+](C)(C)CCOP(=O)([O-])OCC(COCc1ccccc1)OCc1cccc2ccccc12 (stereo unspecified)
> 50	–	CCCCOC(COCc1c(C)noc1C)COP(=O)([O-])OCC[N+](C)(C)C (stereo unspecified)
0.66	0.78	CCCCCCCCCCCCCCCCCCOC(COCn1nnc2ccccc21)COP(=O)([O-])OCC[N+](C)(C)C (stereo unspecified)
